Data on 14 compounds can be found in ChEMBL document CHEMBL2440026, “Hit-to-lead optimization of 2-(1H-pyrazol-1-yl)-thiazole derivatives as a novel class of EP1 receptor antagonists” (Bioorg Med Chem Lett, 2013).

The target of data set [1] is T1, Prostaglandin E2 receptor EP1 subtype (Homo sapiens, UniProt P34995).
T1 sequence (P34995 whole entry): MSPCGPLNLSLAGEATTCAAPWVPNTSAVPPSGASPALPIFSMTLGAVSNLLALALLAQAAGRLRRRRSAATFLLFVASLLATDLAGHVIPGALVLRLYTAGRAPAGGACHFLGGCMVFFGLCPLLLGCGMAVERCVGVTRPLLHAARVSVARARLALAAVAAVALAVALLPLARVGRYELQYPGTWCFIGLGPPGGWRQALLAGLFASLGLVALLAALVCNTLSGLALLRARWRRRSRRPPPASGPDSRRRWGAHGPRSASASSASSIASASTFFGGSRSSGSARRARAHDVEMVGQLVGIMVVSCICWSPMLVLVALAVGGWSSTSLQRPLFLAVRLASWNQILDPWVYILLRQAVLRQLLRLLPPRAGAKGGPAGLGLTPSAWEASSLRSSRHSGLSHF
The experiment in a line: Antagonist activity at human EP1 receptor by reporter gene assay.

Data set [2] in a line: Intrinsic clearance in rat […] by LC/MS/MS analysis. It counts as ADME, cell-free.
The target of data set [3] is Cytochrome P450 2C19 (Homo sapiens, UniProt P33261). Briefly: Inhibition of CYP2C19 (unknown origin). It counts as ADME.
Data set [4] concerns the target T1, Prostaglandin E2 receptor EP1 subtype. Briefly: Antagonist activity at human EP1 receptor by intracellular Ca2+ release assay. The class given is functional, cell-based.
Data set [5] concerns the target Cytochrome P450 2C9 (Homo sapiens, UniProt P11712). The experiment in a line: Inhibition of CYP2C9 (unknown origin). The class given is ADME.
The target of data set [6] is T2, Prostaglandin E2 receptor EP4 subtype (Homo sapiens, UniProt P35408). Briefly: Binding affinity to human EP4 receptor.
In data set [7] the target is T3, Cytochrome P450 1A2 (Homo sapiens, UniProt P05177).
T3 sequence (P05177 whole entry): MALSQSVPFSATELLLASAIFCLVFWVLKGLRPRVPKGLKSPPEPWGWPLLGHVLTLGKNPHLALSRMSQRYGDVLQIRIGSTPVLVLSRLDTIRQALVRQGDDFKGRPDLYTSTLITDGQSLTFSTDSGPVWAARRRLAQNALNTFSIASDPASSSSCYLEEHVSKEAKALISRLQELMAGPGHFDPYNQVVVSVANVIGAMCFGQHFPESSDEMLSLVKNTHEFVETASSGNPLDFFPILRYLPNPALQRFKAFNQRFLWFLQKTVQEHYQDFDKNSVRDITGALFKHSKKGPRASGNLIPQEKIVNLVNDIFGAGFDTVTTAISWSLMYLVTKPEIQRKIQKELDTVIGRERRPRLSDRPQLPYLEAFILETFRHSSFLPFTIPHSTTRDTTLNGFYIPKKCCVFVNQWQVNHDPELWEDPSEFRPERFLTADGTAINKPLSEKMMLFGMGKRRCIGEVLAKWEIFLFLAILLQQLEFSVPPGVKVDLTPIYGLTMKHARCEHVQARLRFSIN
Briefly: Inhibition of CYP1A2 (unknown origin). The class given is ADME.

Data set [8] addresses Cytochrome P450 2D6 (Homo sapiens, UniProt P10635). The experiment in a line: Inhibition of CYP2D6 (unknown origin). It counts as ADME.
Data set [9] has as its target Cytochrome P450 3A4 (Homo sapiens, UniProt P08684). Briefly: Inhibition of CYP3A4 (unknown origin). The class given is ADME.
Data set [10] has as its target T4, Prostaglandin E2 receptor EP2 subtype (Homo sapiens, UniProt P43116). Briefly: Binding affinity to human EP2 receptor.
Data set [11] concerns Salmonella typhimurium. Briefly: Genotoxicity in Salmonella typhimurium TA100. It counts as toxicity, organism-based. Conditions: salmonella enterica subsp. enterica serovar typhimurium.
Data set [12] deals with T5, Prostaglandin E2 receptor EP3 subtype (Homo sapiens, UniProt P43115).
T5 sequence (P43115 whole entry): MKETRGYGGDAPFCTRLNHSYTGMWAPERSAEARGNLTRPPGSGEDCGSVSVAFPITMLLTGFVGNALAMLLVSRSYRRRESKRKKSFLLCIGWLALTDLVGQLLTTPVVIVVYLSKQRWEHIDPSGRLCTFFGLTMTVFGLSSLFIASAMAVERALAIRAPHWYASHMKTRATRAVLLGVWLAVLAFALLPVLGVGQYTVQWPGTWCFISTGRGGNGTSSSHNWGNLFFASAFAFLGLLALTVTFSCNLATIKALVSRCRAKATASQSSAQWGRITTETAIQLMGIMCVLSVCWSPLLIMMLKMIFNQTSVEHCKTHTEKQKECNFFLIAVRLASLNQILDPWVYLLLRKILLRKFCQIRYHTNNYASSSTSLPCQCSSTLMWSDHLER
Briefly: Binding affinity to human EP3 receptor.

Data set [13] has as its target T1, Prostaglandin E2 receptor EP1 subtype. Briefly: Binding affinity to human EP1 receptor.
Data set [14] can be described thus: Oral bioavailability in Sprague-Dawley rat at 10 mg/kg. The class given is ADME, organism-based. The conditions noted are these: in vivo.
The test system of data set [15] is Salmonella typhimurium. The experiment in a line: Genotoxicity in Salmonella typhimurium TA98. It counts as toxicity, organism-based. The conditions noted are these: salmonella enterica subsp. enterica serovar typhimurium.
Data set [16] in a line: Intrinsic clearance in human […] by LC/MS/MS analysis. It counts as ADME, cell-free.
Data set [17] is described as follows: Apparent permeability from apical to basolateral side in MDCK cells. The class given is ADME, cell-based, Canis lupus familiaris. Conditions: dog.
For data set [18], the target named is T6, Prostaglandin E2 receptor EP1 subtype (Homo sapiens) (UniProt P34995).
T6 sequence (whole entry): T1 sequence (P34995 whole entry)
The experiment in a line: Antagonist activity at human EP1 receptor at 1.1 uM by reporter gene assay.

In data set [19] the target is T5, Prostaglandin E2 receptor EP3 subtype. Briefly: Antagonist activity at EP3 receptor (unknown origin).
For data set [20], the species on record is Homo sapiens. Briefly: Selectivity ratio of IC50 for EP2 receptor (unknown origin) to IC50 for human EP1 receptor.
Data set [21] is filed under the species Homo sapiens. Briefly: Selectivity ratio of IC50 for EP4 receptor (unknown origin) to IC50 for human EP1 receptor.
Data set [22] has as its target T4, Prostaglandin E2 receptor EP2 subtype. Briefly: Antagonist activity at EP2 receptor (unknown origin).
The species named for data set [23] is Homo sapiens. Briefly: Selectivity ratio of IC50 for EP3 receptor (unknown origin) to IC50 for human EP1 receptor.
For data set [24], the target named is T2, Prostaglandin E2 receptor EP4 subtype. The experiment in a line: Antagonist activity at EP4 receptor (unknown origin).

Chain of Cytochrome P450 3A4 (P08684 whole entry): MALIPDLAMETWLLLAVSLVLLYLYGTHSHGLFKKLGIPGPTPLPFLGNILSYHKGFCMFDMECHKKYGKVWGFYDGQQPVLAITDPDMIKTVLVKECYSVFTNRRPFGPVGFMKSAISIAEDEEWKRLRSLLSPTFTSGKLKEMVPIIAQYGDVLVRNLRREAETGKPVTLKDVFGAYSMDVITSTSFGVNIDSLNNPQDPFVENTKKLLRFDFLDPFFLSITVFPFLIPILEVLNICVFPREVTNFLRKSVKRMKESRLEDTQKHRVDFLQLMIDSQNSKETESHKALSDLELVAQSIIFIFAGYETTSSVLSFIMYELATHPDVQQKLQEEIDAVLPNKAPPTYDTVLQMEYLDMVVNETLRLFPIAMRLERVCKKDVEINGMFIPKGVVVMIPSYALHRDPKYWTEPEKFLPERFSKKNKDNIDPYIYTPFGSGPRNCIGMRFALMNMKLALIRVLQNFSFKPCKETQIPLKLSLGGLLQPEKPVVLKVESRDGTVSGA
Chain of Cytochrome P450 2C9 (P11712 whole entry): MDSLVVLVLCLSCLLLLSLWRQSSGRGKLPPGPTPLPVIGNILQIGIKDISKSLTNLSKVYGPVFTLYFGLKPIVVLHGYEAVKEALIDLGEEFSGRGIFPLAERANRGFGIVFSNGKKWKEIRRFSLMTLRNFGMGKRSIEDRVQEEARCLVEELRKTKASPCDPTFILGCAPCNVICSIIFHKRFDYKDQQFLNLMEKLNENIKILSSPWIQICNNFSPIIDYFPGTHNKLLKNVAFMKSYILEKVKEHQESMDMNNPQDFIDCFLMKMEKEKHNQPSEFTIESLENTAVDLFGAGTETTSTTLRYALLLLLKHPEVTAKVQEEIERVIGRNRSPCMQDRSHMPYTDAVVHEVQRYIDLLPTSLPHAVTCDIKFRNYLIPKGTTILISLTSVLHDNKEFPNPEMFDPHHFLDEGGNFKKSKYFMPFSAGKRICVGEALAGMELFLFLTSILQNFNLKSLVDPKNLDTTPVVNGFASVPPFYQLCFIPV
T2 sequence (P35408 whole entry): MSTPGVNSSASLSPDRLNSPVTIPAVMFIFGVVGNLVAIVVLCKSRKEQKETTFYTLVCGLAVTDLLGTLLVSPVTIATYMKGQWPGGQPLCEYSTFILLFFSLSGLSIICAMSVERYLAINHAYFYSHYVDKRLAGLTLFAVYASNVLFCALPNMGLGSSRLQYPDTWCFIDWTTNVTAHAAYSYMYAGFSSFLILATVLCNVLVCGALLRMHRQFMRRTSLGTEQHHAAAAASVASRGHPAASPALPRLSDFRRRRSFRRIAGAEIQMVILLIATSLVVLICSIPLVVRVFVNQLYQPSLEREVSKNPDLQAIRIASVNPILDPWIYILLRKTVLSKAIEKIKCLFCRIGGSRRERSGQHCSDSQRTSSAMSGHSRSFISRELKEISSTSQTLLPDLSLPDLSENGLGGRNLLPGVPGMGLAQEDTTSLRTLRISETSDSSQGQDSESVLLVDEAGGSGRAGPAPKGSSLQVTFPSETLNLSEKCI
T4 sequence (P43116 whole entry): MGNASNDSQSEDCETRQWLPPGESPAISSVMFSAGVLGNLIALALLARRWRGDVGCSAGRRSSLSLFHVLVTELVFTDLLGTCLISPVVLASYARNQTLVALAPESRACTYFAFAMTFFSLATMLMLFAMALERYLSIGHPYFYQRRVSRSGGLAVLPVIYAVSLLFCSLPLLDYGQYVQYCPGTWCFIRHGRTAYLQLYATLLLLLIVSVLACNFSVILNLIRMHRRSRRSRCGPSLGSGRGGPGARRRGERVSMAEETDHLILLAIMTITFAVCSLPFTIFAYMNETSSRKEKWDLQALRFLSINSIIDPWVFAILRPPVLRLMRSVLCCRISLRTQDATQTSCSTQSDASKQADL
Chain of Cytochrome P450 2D6 (P10635 whole entry): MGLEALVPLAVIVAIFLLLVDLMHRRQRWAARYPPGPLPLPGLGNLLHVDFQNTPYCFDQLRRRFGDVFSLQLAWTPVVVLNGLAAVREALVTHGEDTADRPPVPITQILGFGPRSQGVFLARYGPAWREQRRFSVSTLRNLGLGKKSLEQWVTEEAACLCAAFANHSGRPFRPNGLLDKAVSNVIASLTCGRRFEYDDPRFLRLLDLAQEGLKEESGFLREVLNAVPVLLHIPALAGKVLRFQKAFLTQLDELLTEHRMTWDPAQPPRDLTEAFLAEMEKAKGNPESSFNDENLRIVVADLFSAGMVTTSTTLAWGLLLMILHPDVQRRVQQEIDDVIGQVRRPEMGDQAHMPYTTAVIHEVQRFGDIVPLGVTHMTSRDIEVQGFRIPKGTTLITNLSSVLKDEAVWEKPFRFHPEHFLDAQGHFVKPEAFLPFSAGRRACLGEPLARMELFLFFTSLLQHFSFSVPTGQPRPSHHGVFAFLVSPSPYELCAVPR
Chain of Cytochrome P450 2C19 (P33261 whole entry): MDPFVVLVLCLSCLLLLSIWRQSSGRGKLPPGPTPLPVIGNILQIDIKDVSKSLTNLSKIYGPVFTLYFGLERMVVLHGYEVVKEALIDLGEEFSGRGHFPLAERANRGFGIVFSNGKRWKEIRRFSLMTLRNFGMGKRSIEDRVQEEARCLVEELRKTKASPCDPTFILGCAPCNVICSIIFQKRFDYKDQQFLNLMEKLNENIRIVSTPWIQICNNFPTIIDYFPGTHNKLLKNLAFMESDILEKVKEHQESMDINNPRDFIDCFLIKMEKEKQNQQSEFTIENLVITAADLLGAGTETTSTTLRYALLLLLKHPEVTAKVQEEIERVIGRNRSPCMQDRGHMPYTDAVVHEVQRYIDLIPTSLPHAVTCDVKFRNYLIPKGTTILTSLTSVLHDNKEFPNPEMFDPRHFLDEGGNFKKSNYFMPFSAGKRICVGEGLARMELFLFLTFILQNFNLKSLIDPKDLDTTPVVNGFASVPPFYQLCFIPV

As to `COc1ccc(-c2cc(C(F)(F)F)n(-c3nc(C(=O)O)cs3)n2)cc1`, the 50% inhibitory concentration (IC50) in data set [1] is 0.43 µM.

In data set [1], `Cc1ccc(-c2cc(C(F)(F)F)n(-c3nc(C(=O)O)cs3)n2)cc1` yielded an IC50 of 3 µM.

On to `Cn1c(-c2ccccc2)nc(-c2nc(C(=O)O)cs2)c1-c1ccccc1`, for which half-maximal inhibition in [1] (IC50) required 0.5 µM. This IC50 is about 6-fold lower than that of the compound before.

As for `Cc1c(-c2ccccc2)nn(-c2nc(C(=O)O)cs2)c1-c1ccccc1`, the values for the CLint scaled in data set [2] and in data set [16] were 15 mL/min/kg and 35 mL/min/kg, respectively. Besides, the IC50 was 4.71 µM in data set [3]; 0.5 µM in [4]; over 10 µM in data set [5]; 7.93 µM in [7]; over 10 µM in [8]; over 10 µM in [9]. In [1], the IC50 is 0.05 µM. Further, the inhibition constant Ki was over 2.7 µM in data set [6], over 8 µM in data set [10], over 5 µM in [12] and 0.29 µM in [13]. The Activity result in data set [11] and in data set [15] was “Non-toxic” in each case. In [14], this compound had a bioavailability of 32%. Besides, the Papp A→B in data set [17] turned out to be 51.6 ×10⁻⁶ cm/s.

In the case of `O=C(O)c1csc(-n2nc(-c3ccccc3)cc2-c2ccccc2)n1`, the inhibition in [18] was found to be 31%.

For `Cc1c(-c2ccccc2)nc(-c2nc(C(=O)O)cs2)n1-c1ccccc1`, in [18], the inhibition stood at 7%.

Consider `Cc1cc(-c2ccccc2)nn1-c1nc(C(=O)O)cs1`, for which, in data set [18], the inhibition came to 14%.

With `COc1ccc(-c2cc(C(F)(F)F)nn2-c2nc(C(=O)O)cs2)cc1`, the CLint scaled came out at 195 mL/min/kg in [2] and 187 mL/min/kg in data set [16]. Also, the IC50 in data set [3] is 7.14 µM; in [4], 5.8 µM; in [5] it was over 10 µM; in data set [19] it was over 5 µM; in [7] it was over 10 µM; in data set [8] it was over 10 µM. In addition, the IC50 in [9] is over 10 µM; in data set [22] it was over 8 µM; in data set [1], 1 µM; in data set [24], over 2.7 µM. In addition, the Ki in [6] was over 2.7 µM; in data set [10], over 8 µM; in [12] it was over 5 µM; in data set [13], 8.7 µM. In addition, the Ratio IC50 in [20], in data set [21] and in data set [23] was 3 each time. Moreover, the Activity entry in data set [11] and in [15] was “Non-toxic” throughout.

For `Cc1c(-c2ccccc2)nn(-c2nc(C(=O)O)cs2)c1C(F)(F)F`, the 50% inhibitory concentration (IC50) in [1] worked out at 0.084 µM.

For `O=C(O)c1csc(-n2nc(-c3cccc(O)c3)cc2C(F)(F)F)n1`, the 50% inhibitory concentration (IC50) in data set [1] turned out to be 0.58 µM.

As for `O=C(O)c1csc(-n2nc(-c3ccccc3)cc2C(F)(F)F)n1`, the IC50 was over 10 µM in [3]; over 10 µM in [5]; over 10 µM in [7]; over 10 µM in [8]; over 10 µM in data set [9]; 0.32 µM in [1]. The intrinsic clearance (CLint scaled) in data set [16] was 28 mL/min/kg.

For the compound `O=C(O)c1csc(-n2nc(-c3ccccc3O)cc2C(F)(F)F)n1`, the CLint scaled came out at 130 mL/min/kg in [2] and 500 mL/min/kg in data set [16]. The IC50 in data set [3] was over 10 µM; in data set [4] it was 0.8 µM; in [5] it was over 10 µM; in [7] it was over 10 µM; in data set [8] it was over 10 µM; in data set [9], over 10 µM. In [1], this compound came in with a concentration for half-maximal inhibition (IC50) of 0.18 µM. For the same compound, the inhibition constant (Ki) in [6] was over 2.7 µM; in data set [10], over 8 µM; in [12], over 5 µM; in data set [13], 0.53 µM. For the same compound, the Activity result in data set [11] and in [15] was “Non-toxic” each time. For the same compound, in [17], the apical-to-basolateral permeability (Papp A→B) amounted to 22.8 ×10⁻⁶ cm/s.

`CC(C)(C)c1cc(-c2ccccc2)nn1-c1nc(C(=O)O)cs1` registered an inhibition in [18] of 1%.

In the case of `O=C(O)c1csc(-n2nc(-c3ccc(O)cc3)cc2C(F)(F)F)n1`, 0.32 µM corresponded to half-maximal inhibition in [1] (IC50).
